Assay results as given in US6960614B2, “Oxygenated esters of 4-lodo phenylamino benzhydroxamic acids” (Warner-Lambert Company, priority 2000, dated 2005).

Experiments:
[1] = tested on: MEK; experiment: Cellular Assay for Measuring MEK Inhibition (inhibition of ERK phosphorylation in C26 cells, Western blot); assay type: cell-based, murine; details: inhibition of ERK phosphorylation in murine colon 26 (C26) carcinoma cells; determined graphically from dose response curve
Outline: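 Exponentially growing murine colon 26 (C26) carcinoma cells treated with varying compound concentrations at 37° C, then lysed. Western blot with antibody to dually phosphorylated ERK1/ERK2; blots stripped and re-probed for total ERK1/ERK2.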

[2] = tested on: carrageenan thermal hyperalgesia response; experiment: Thermal hyperalgesia from intraplantar carrageenan in rats (Paw Withdrawal Latency); assay type: in vivo; details: rat; for % Inhibition (1 hr): DOSE (PO) 10, 1 hour after drug administration; for % Inhibition (2 hr): DOSE (PO) 10, 2 hours after drug administration; for % Inhibition (3 hr): DOSE (PO) 10, 3 hours after drug administration
Protocol: The analgesic activity of the compounds of the present invention was assessed by a test with rats. […] The rats were placed on a glass plate with illumination from a halogen lamp placed directly under the injected paw. The time (in seconds) from beginning illumination until the hindlimb was withdrawn from the glass was measured and scored as Paw Withdrawal Latency (PWL). Drug substances were given by oral gavage injection 21⁄2 hours after carrageenan injection to the footpad. PWL was measured prior to carrageenan injection, just prior to drug injection, and 1, 2 (and sometimes 3) hours after drug injection. Carrageenan (a polysaccharide extracted from seaweed) causes a sterile inflammation when injected under the skin. Injection into the rat footpad causes little or no spontaneous pain-related behavior but induces hyperalgesia (pain-related behavioral responses of greater intensity than expected) to peripheral thermal or mechanical stimuli. This hyperalgesia is maximal 2 to 3 hours after injection. Treatment of rats with various analgesic drugs reduces hyperalgesia measured in this way and is a conventional test for detection of analgesic activity in rats. […] Inhibition of the carrageenan thermal hyperalgesia response was determined by the difference between reduced PWL prior to drug and subsequent to drug treatment, and was expressed as percent inhibition of the response. […] Inhibition indicates and analgesic effect.

Structure (SMILES) | IC50 [1] [nM] | % Inhibition (1 hr) [2] [%] | % Inhibition (2 hr) [2] [%] | % Inhibition (3 hr) [2] [%] | melting point
O=C(NOC[C@@H](O)CO)c1cc(Cl)c(F)c(F)c1Nc1ccc(I)cc1F [Example 54] | 1.2 | 49 | 52.9 | 29.6 | 157 to 158 °C
O=C(NOCC(O)CO)c1cc(Cl)c(F)c(F)c1Nc1ccc(I)cc1Cl (stereo not drawn) [Example 34] | 1 | 39.6 | 61.5 |  | 152 to 154 °C
O=C(NOCC(O)CO)c1cc(Cl)c(F)c(F)c1Nc1ccc(I)cc1F (stereo not drawn) [Example 41, 5-Chloro-N-(2,3-dihydroxy-propoxy)-3,4-difluoro-2-(2-fluoro-4-iodo-phenylamino)-benzamide] | 0.73 | 26.7 | 61.0 |  | 152 to 155 °C
O=C(c1ccc(F)c(F)c1Nc1ccc(I)cc1F)N1CC(O)CO1 (stereo not drawn) [Example 83, [3,4-Difluoro-2-(2-fluoro-4-iodo-phenylamino)-phenyl]-(4-hydroxy-isoxazolidin-2-yl)-methanone] | 41 |  |  |  | 122 to 124 °C
Cc1cc(I)ccc1Nc1c(C(=O)NOCC2(CO)CC2)ccc(F)c1F [Example 70, 3,4-Difluoro-N-(1-hydroxymethyl-cyclopropylmethoxy)-2-(4-iodo-2-methyl-phenylamino)-benzamide] | 200 |  |  |  | 165.4 to 165.6 °C
O=C(NOCCC(O)CO)c1cc(Cl)c(F)c(F)c1Nc1ccc(I)cc1Cl (stereo not drawn) [Example 37, 5-Chloro-2-(2-chloro-4-iodo-phenylamino)-N-(3,4-dihydroxy-butoxy)-3,4-difluoro-benzamide] | 30 |  |  |  | 146 to 148 °C
O=C(NOCCCO)c1ccc(F)cc1Nc1ccc(I)cc1Cl [Example 30] | 130 |  |  |  | 158.8 to 160.8 °C
O=C(NOC[C@H](O)CO)c1ccc(F)c(F)c1Nc1ccc(Br)cc1F [Example 55, 2-(4-Bromo-2-fluoro-phenylamino)-N-((R)-2,3-dihydroxy-propoxy)-3,4-difluoro-benzamide] | 4.5 | 36.8 | 60 | 22 | 52 °C
O=C(NOCC1(CO)CC1)c1cc(Br)c(F)c(F)c1Nc1ccc(I)cc1Cl [Example 71, 5-Bromo-2-(2-chloro-4-iodo-phenylamino)-3,4-difluoro-N-(1-hydroxymethyl-cyclopropylmethoxy)-benzamide] | 120 |  |  |  | 152.6 to 153.9 °C
Cc1cc(I)ccc1Nc1cc(F)c(Br)cc1C(=O)NOCCO [Example 16, 5-Bromo-4-fluoro-N-(2-hydroxy-ethoxy)-2-(4-iodo-2-methyl-phenylamino)-benzamide] | 20 |  |  |  | 154.4 to 156.4 °C
COCC(O)CONC(=O)c1cc(Br)c(F)c(F)c1Nc1ccc(I)cc1Cl (stereo not drawn) [Example 69, 5-Bromo-2-(2-chloro-4-iodo-phenylamino)-3,4-difluoro-N-(2-hydroxy-3-methoxy-propoxy)-benzamide] | 60 |  |  |  | 139.5 to 140.1 °C
O=C(NOCCO)c1cc(Cl)c(F)c(F)c1Nc1ccc(I)cc1 [Example 7, 5-Chloro-3,4-difluoro-N-(2-hydroxy-ethoxy)-2-(4-iodo-phenylamino)-benzamide] | 5 |  |  |  | 174 to 176 °C
C=COCCONC(=O)c1cc(Br)c(F)c(F)c1Nc1ccc(I)cc1F [Example 61, 5-Bromo-3,4-difluoro-2-(2-fluoro-4-iodo-phenylamino)-N-(2-vinyloxy-ethoxy)-benzamide] | 150 |  |  |  | 128 to 130 °C
O=C(NOCCO)c1ccc(F)c(F)c1Nc1ccc(I)cc1Cl [Example 3, 2-(2-Chloro-4-iodo-phenylamino)-3,4-difluoro-N-(2-hydroxy-ethoxy)-benzamide] | 4 |  |  |  | 173 to 175 °C
O=C(NOCCO)c1ccc(F)c(F)c1Nc1ccc(Br)cc1F [Example 22, 2-(4-Bromo-2-fluoro-phenylamino)-3,4-difluoro-N-(2-hydroxy-ethoxy)-benzamide] | 7.7 |  |  |  | 146.1 to 146.4 °C
Cc1cc(I)ccc1Nc1c(C(=O)NOCCCO)cc(Cl)c(F)c1F [Example 29, 5-Chloro-3,4-difluoro-N-(3-hydroxy-propoxy)-2-(4-iodo-2-methyl-phenylamino)-benzamide] | 47 |  |  |  | 155.2 to 156.6 °C

Structure (SMILES) | IC50 [1] [nM] | % Inhibition (1 hr) [2] [%] | % Inhibition (2 hr) [2] [%] | % Inhibition (3 hr) [2] [%] | melting point
CC1(C)OCC(ONC(=O)c2ccc(F)c(F)c2Nc2ccc(I)cc2F)CO1 [Example 46, N-(2,2-Dimethyl-[1,3]dioxan-5-yloxy)-3,4-difluoro-2-(2-fluoro-4-iodo-phenylamino)-benzamide] | 582 |  |  |  | 154 to 155 °C
O=C(NOC[C@@H]1C[C@H]1CO)c1ccc(F)c(F)c1Nc1ccc(I)cc1F (relative stereo) [Example 74, 3,4-Difluoro-2-(2-fluoro-4-iodo-phenylamino)-N-[trans-(2-hydroxymethyl-cyclopropylmethoxy)]-benzamide] | 18 |  |  |  | 128.5 to 128.7 °C
O=C(NOCCO)c1cc(Br)c(F)c(F)c1Nc1ccc(I)cc1Cl [Example 14, 5-Bromo-2-(2-chloro-4-iodo-phenylamino)-3,4-difluoro-N-(2-hydroxy-ethoxy)-benzamide] | 2 |  |  |  | 190.2 to 200.2 °C
O=C(NOCCO)c1ccc(F)c(F)c1Nc1ccc(F)cc1F [Example 27, 2-(2,4-Difluoro-phenylamino)-3,4-difluoro-N-(2-hydroxy-ethoxy)-benzamide] | 120 |  |  |  | 141.1 to 141.6 °C
O=C(NOCCO)c1cc(F)c(F)c(F)c1Nc1ccc(I)cc1F [Example 21, 3,4,5-Trifluoro-2-(2-fluoro-4-iodo-phenylamino)-N-(2-hydroxy-ethoxy)-benzamide] | 1.8 |  |  |  | 185 to 187 °C
O=C(NOCCO)c1cc(Cl)c(F)c(F)c1Nc1ccc(F)cc1F [Example 26, 5-Chloro-2-(2,4-difluoro-phenylamino)-3,4-difluoro-N-(2-hydroxy-ethoxy)-benzamide] | 240 |  |  |  | 161.6 to 162.4 °C
O=C(NOCC(O)CO)c1ccc(F)c(F)c1Nc1ccc(Cl)cc1F (stereo not drawn) [Example 45, 2-(4-Chloro-2-fluoro-phenylamino)-N-(2,3-dihydroxy-propoxy)-3,4-difluoro-benzamide] | 19 |  |  |  | 114 to 114.9 °C
O=C(NOCC(O)CO)c1ccc(F)c(F)c1Nc1ccc(Br)cc1F (stereo not drawn) [Example 44] | 3 |  |  |  | 110 to 117 °C (dec.)
O=C(NOCCO)c1cc(F)c(F)c(F)c1Nc1ccc(I)cc1Cl [Example 6, 2-(2-Chloro-4-iodo-phenylamino)-3,4,5-trifluoro-N-(2-hydroxy-ethoxy)-benzamide] | 5 |  |  |  | 183 to 184.5 °C
CC(C)(CO)ONC(=O)c1cc(Br)c(F)c(F)c1Nc1ccc(I)cc1Cl [Example 62, 5-Bromo-2-(2-chloro-4-iodo-phenylamino)-3,4-difluoro-N-(2-hydroxy-1,1-dimethyl-ethoxy)-benzamide] | 18 |  |  |  | 179 to 181 °C
O=C(NOC(CO)CO)c1ccc(F)c(F)c1Nc1ccc(I)cc1F [Example 47, 3,4-Difluoro-2-(2-fluoro-4-iodo-phenylamino)-N-(2-hydroxy-1-hydroxymethyl-ethoxy)-benzamide] | 1 |  |  |  | 111 to 114 °C
Cc1cc(I)ccc1Nc1cc(F)ccc1C(=O)NOCCCO [Example 28, 4-Fluoro-N-(3-hydroxy-propoxy)-2-(4-iodo-2-methyl-phenylamino)-benzamide] | 120 |  |  |  | 120.8 to 122.4 °C
Cc1cc(I)ccc1Nc1c(C(=O)NOCCC(O)CO)cc(Cl)c(F)c1F (stereo not drawn) [Example 36, 5-Chloro-N-(3,4-dihydroxy-butoxy)-3,4-difluoro-2-(4-iodo-2-methyl-phenylamino)-benzamide] | 53 |  |  |  | 135 to 138 °C
C=COCCONC(=O)c1ccc(F)cc1Nc1ccc(I)cc1F [Example 58, 4-Fluoro-2-(2-fluoro-4-iodo-phenylamino)-N-(2-vinyloxy-ethoxy)-benzamide] | 60 |  |  |  | 103.5 to 104 °C
CC(C)(O)CONC(=O)c1ccc(F)c(F)c1Nc1ccc(I)cc1F [Example 67, 3,4-Difluoro-2-(2-fluoro-4-iodo-phenylamino)-N-(2-hydroxy-2-methyl-propoxy)-benzamide] | 6 |  |  |  | 156.7 to 156.9 °C
